The record followed here is US4450269A, “Mono-5-substituted-3-chloro-4H-1,2,6-thiadiazin-4-one antifungal agents” (FMC Corporation, priority 1980, dated 1984).

One assay relates to Alternaria solani. The assay can be described thus: Spore germination test. The format is cell-based. Conditions: AS, 48 hours. In short, it runs like this:
(§1)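 Compound was delivered in acetone into water agar at final 40, 10, 2.5 and 1 ppm. Alternaria solani and Botrytis cinerea spores were applied as sterile-water suspensions, while Erysiphe polygoni and Uromyces phaseoli spores were brushed on from infected leaves. After 48 h at 24° C., percentage germination was converted to a rating.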

Another assay relates to Botrytis cinerea. Nature of the assay: Spore germination test. In kind it is cell-based. The note with it: BC, 48 hours. In short, it runs like this:
as §1

With `O=c1c(Cl)nsnc1Oc1ccc(O)cc1` [Compound 35, 3-chloro-5-(4-hydroxyphenoxy)-4H-1,2,6-thiadiazin-4-one], the “Spore Germination Rating” value is listed as 4 (80-100) in the assay on Alternaria solani (1.0 ppm); 4 (80-100) in the assay with Alternaria solani (2.5 ppm); 3 (60-80) with Alternaria solani (10 ppm); 0 (0-10) with Alternaria solani (40 ppm); 4 (80-100) in the assay with Botrytis cinerea (1.0 ppm); 4 (80-100) in the assay on Botrytis cinerea (2.5 ppm). In addition, the results for the “Spore Germination Rating” value in the assay with Botrytis cinerea (10 ppm) and with Botrytis cinerea (40 ppm) were 4 (80-100) and 3 (60-80), respectively.

Consider `O=C(Nc1ccccc1)Oc1ccc(Oc2nsnc(Cl)c2=O)cc1` [Compound 37, 3-chloro-5-[4-(phenylaminocarbonyloxy)phenoxy]-4H-1,2,6,-thiadiazin-4-one], for which the “Spore Germination Rating” value in the assay with Alternaria solani (1.0 ppm) is listed as 4 (80-100); in the assay with Alternaria solani (2.5 ppm) it was 4 (80-100); in the assay on Alternaria solani (10 ppm) it was 4 (80-100); with Alternaria solani (40 ppm), 3 (60-80); in the assay on Botrytis cinerea (1.0 ppm) it was 4 (80-100); with Botrytis cinerea (2.5 ppm), 4 (80-100). The “Spore Germination Rating” value with Botrytis cinerea (10 ppm) and with Botrytis cinerea (40 ppm) was 4 (80-100) throughout.

With `O=C(OCc1ccccc1)Oc1ccc(Oc2nsnc(Cl)c2=O)cc1` [Compound 38, 3-chloro-5-[4-(phenylmethoxycarbonyloxy)phenoxyl]-4H-1,2,6-thiadiazin-4-one], the “Spore Germination Rating” value in the assay with Alternaria solani (1.0 ppm), with Alternaria solani (2.5 ppm), in the assay with Alternaria solani (10 ppm), in the assay on Alternaria solani (40 ppm), in the assay on Botrytis cinerea (1.0 ppm) and with Botrytis cinerea (2.5 ppm) was 4 (80-100) in each case. In addition, the “Spore Germination Rating” value with Botrytis cinerea (10 ppm) is reported as 4 (80-100); in the assay on Botrytis cinerea (40 ppm), 3 (60-80).

Regarding `CSc1ccc(Oc2nsnc(Cl)c2=O)cc1` [Compound 39, 3-chloro-5-[(4-methylthio)phenoxy]-4H-1,2,6,-thiadiazin-4-one], the “Spore Germination Rating” value with Alternaria solani (1.0 ppm) is listed as 4 (80-100); in the assay with Alternaria solani (2.5 ppm), 3 (60-80); in the assay on Alternaria solani (10 ppm) it was 2 (40-60); in the assay with Alternaria solani (40 ppm), 0 (0-10); in the assay with Botrytis cinerea (1.0 ppm), 4 (80-100); with Botrytis cinerea (2.5 ppm) it was 4 (80-100). Besides, the “Spore Germination Rating” value in the assay on Botrytis cinerea (10 ppm) is reported as 4 (80-100); in the assay with Botrytis cinerea (40 ppm), 3 (60-80).

As to `C[S+]([O-])c1ccc(Oc2nsnc(Cl)c2=O)cc1` (stereo not drawn) [Compound 40, 3-chloro-5-[(4-methylsulfinyl)phenoxy]-4H-1,2,6,-thiadiazin-4-one], the “Spore Germination Rating” value in the assay with Alternaria solani (1.0 ppm) is 4 (80-100); with Alternaria solani (2.5 ppm), 2 (40-60); with Alternaria solani (10 ppm), 1 (10-40); with Alternaria solani (40 ppm) it was 0 (0-10); with Botrytis cinerea (1.0 ppm), 4 (80-100); in the assay on Botrytis cinerea (2.5 ppm) it was 4 (80-100). In addition, the “Spore Germination Rating” value is listed as 4 (80-100) in the assay on Botrytis cinerea (10 ppm) and 3 (60-80) in the assay on Botrytis cinerea (40 ppm).

Turning to `CC(=O)Nc1cccc(Oc2nsnc(Cl)c2=O)c1` [Compound 42, 3-[(3-N--acetylamino)-phenoxy]-5-chloro-4H--1,2,6-thiadiazin-4-one], the “Spore Germination Rating” value in the assay on Alternaria solani (1.0 ppm) is listed as 4 (80-100); in the assay on Alternaria solani (2.5 ppm) it was 4 (80-100); with Alternaria solani (10 ppm), 4 (80-100); with Alternaria solani (40 ppm), 2 (40-60); with Botrytis cinerea (1.0 ppm), 4 (80-100); in the assay with Botrytis cinerea (2.5 ppm) it was 4 (80-100). The “Spore Germination Rating” value in the assay on Botrytis cinerea (10 ppm) is 4 (80-100); with Botrytis cinerea (40 ppm), 1 (10-40).

As to `CC(=O)Nc1ccccc1Oc1nsnc(Cl)c1=O` [Compound 43, 3-[(2-acetylamino)-phenoxy]-5-chloro-4H--1,2,6-thiadiazin-4-one], the “Spore Germination Rating” value in the assay with Alternaria solani (1.0 ppm) is recorded as 4 (80-100); in the assay with Alternaria solani (2.5 ppm) it was 4 (80-100); with Alternaria solani (10 ppm) it was 4 (80-100); with Alternaria solani (40 ppm), 3 (60-80); in the assay with Botrytis cinerea (1.0 ppm), 4 (80-100); in the assay with Botrytis cinerea (2.5 ppm), 4 (80-100). In addition, the “Spore Germination Rating” value in the assay with Botrytis cinerea (10 ppm) is recorded as 4 (80-100); with Botrytis cinerea (40 ppm), 3 (60-80).

In the case of `O=c1c(Cl)nsnc1Oc1cccc(C(F)(F)F)c1` [Compound 44, 3-chloro-5-[(3-trifluoromethyl)phenoxy]-4H--1,2,6-thiadiazin-4-one], the “Spore Germination Rating” value with Alternaria solani (1.0 ppm) is given as 4 (80-100); in the assay on Alternaria solani (2.5 ppm) it was 1 (10-40); with Alternaria solani (10 ppm) it was 0 (0-10); in the assay with Alternaria solani (40 ppm), 0 (0-10); in the assay on Botrytis cinerea (1.0 ppm) it was 4 (80-100); in the assay on Botrytis cinerea (2.5 ppm), 3 (60-80). For the same molecule, the “Spore Germination Rating” value with Botrytis cinerea (10 ppm) and in the assay with Botrytis cinerea (40 ppm) was 0 (0-10) in each case.

Regarding `O=C(O)Cc1ccccc1Oc1nsnc(Cl)c1=O` [Compound 45, 3-(2-carboxymethylphenoxy)-5-chloro-4H--1,2,6-thiadiazin-4-one], the “Spore Germination Rating” value is given as 4 (80-100) in the assay on Alternaria solani (1.0 ppm); 4 (80-100) in the assay on Alternaria solani (2.5 ppm); 4 (80-100) with Alternaria solani (10 ppm); 2 (40-60) with Alternaria solani (40 ppm); 4 (80-100) in the assay with Botrytis cinerea (1.0 ppm); 4 (80-100) in the assay on Botrytis cinerea (2.5 ppm). For the same molecule, the figures for the “Spore Germination Rating” value in the assay on Botrytis cinerea (10 ppm) and with Botrytis cinerea (40 ppm) were 4 (80-100) and 2 (40-60), respectively.

Consider `N#CCc1ccc(Oc2nsnc(Cl)c2=O)cc1` [Compound 46, 3-chloro-5-[(4-cyanomethyl)-phenoxy]4H--1,2,6-thiadiazin-4-one], for which the “Spore Germination Rating” value in the assay with Alternaria solani (1.0 ppm) is 4 (80-100); in the assay on Alternaria solani (2.5 ppm) it was 2 (40-60); with Alternaria solani (10 ppm), 2 (40-60); in the assay with Alternaria solani (40 ppm), 0 (0-10); in the assay on Botrytis cinerea (1.0 ppm), 4 (80-100); with Botrytis cinerea (2.5 ppm), 3 (60-80). Also, the “Spore Germination Rating” value is 3 (60-80) in the assay with Botrytis cinerea (10 ppm) and 0 (0-10) in the assay on Botrytis cinerea (40 ppm).

With `CC(=O)c1ccc(Oc2nsnc(Cl)c2=O)cc1` [Compound 47, 3-(4-acetylphenoxy)-5-chloro-4H--1,2,6-thiadiazin-4-one], the “Spore Germination Rating” value is recorded as 2 (40-60) in the assay with Alternaria solani (1.0 ppm); 0 (0-10) in the assay with Alternaria solani (2.5 ppm); 0 (0-10) in the assay with Alternaria solani (10 ppm); 0 (0-10) with Alternaria solani (40 ppm); 4 (80-100) with Botrytis cinerea (1.0 ppm); 1 (10-40) in the assay with Botrytis cinerea (2.5 ppm). Also, the “Spore Germination Rating” value in the assay with Botrytis cinerea (10 ppm) and in the assay with Botrytis cinerea (40 ppm) was 0 (0-10) each time.

On to `CC(=O)c1cccc(Oc2nsnc(Cl)c2=O)c1` [Compound 48, 3-(3-acetylphenoxy)-5-chloro-4H--1,2,6-thiadiazin-4-one], for which the “Spore Germination Rating” value in the assay on Alternaria solani (1.0 ppm) is listed as 4 (80-100); with Alternaria solani (2.5 ppm), 3 (60-80); with Alternaria solani (10 ppm), 0 (0-10); in the assay on Alternaria solani (40 ppm), 0 (0-10); with Botrytis cinerea (1.0 ppm) it was 4 (80-100); with Botrytis cinerea (2.5 ppm), 4 (80-100). Moreover, the “Spore Germination Rating” value in the assay with Botrytis cinerea (10 ppm) and in the assay on Botrytis cinerea (40 ppm) was 0 (0-10) in each case.

Turning to `CC(=O)c1ccccc1Oc1nsnc(Cl)c1=O` [Compound 49, 3-(2-acetylphenoxy)-5-chloro-4H--1,2,6-thiadiazin-4-one], the “Spore Germination Rating” value in the assay on Alternaria solani (1.0 ppm) is listed as 4 (80-100); in the assay on Alternaria solani (2.5 ppm), 3 (60-80); in the assay with Alternaria solani (10 ppm), 2 (40-60); in the assay with Alternaria solani (40 ppm), 0 (0-10); with Botrytis cinerea (1.0 ppm), 1 (10-40); in the assay on Botrytis cinerea (2.5 ppm) it was 1 (10-40). For the same molecule, the “Spore Germination Rating” value in the assay on Botrytis cinerea (10 ppm) and in the assay on Botrytis cinerea (40 ppm) was 0 (0-10) in each case.

On to `O=C(O)c1ccc(Oc2nsnc(Cl)c2=O)cc1` [Compound 50, 3-(4-carboxyphenoxy)-5-chloro-4H--1,2,6-thiadiazin-4-one], for which the “Spore Germination Rating” value in the assay on Alternaria solani (1.0 ppm), in the assay with Alternaria solani (2.5 ppm), in the assay with Alternaria solani (10 ppm), with Alternaria solani (40 ppm), in the assay with Botrytis cinerea (1.0 ppm) and in the assay with Botrytis cinerea (2.5 ppm) was 4 (80-100) each time. Also, the “Spore Germination Rating” value in the assay on Botrytis cinerea (10 ppm) and in the assay with Botrytis cinerea (40 ppm) was 4 (80-100) in each case.

Turning to `COc1ccc(Cl)c(Oc2nsnc(Cl)c2=O)c1` [Compound 51, 3-chloro-5-[(2-chloro-5-methoxy)phenoxy]-4H--1,2,6-thiadiazin-4-one], the “Spore Germination Rating” value is on record as 4 (80-100) in the assay on Alternaria solani (1.0 ppm); 4 (80-100) in the assay on Alternaria solani (2.5 ppm); 1 (10-40) with Alternaria solani (10 ppm); 0 (0-10) with Alternaria solani (40 ppm); 4 (80-100) with Botrytis cinerea (1.0 ppm); 3 (60-80) in the assay with Botrytis cinerea (2.5 ppm). Besides, the “Spore Germination Rating” value with Botrytis cinerea (10 ppm) and with Botrytis cinerea (40 ppm) was 0 (0-10) each time.

Take `O=c1c(Cl)nsnc1Oc1ccc([N+](=O)[O-])cc1Cl` [Compound 53, 3-chloro-5-(2-chloro-4-nitrophenoxy)-4H--1,2,6-thiadiazin-4-one]: the “Spore Germination Rating” value in the assay with Alternaria solani (1.0 ppm) is reported as 2 (40-60); in the assay on Alternaria solani (2.5 ppm), 0 (0-10); in the assay on Alternaria solani (10 ppm), 0 (0-10); in the assay on Alternaria solani (40 ppm), 0 (0-10); with Botrytis cinerea (1.0 ppm) it was 3 (60-80); in the assay on Botrytis cinerea (2.5 ppm), 0 (0-10). The “Spore Germination Rating” value with Botrytis cinerea (10 ppm) and with Botrytis cinerea (40 ppm) was 0 (0-10) each time.

In the case of `Cc1cc(Oc2nsnc(Cl)c2=O)ccc1Cl` [Compound 54, 3-chloro-5-(4-chloro-3-methylphenoxy)-4H--1,2,6-thiadiazin-4-one], the “Spore Germination Rating” value in the assay with Alternaria solani (1.0 ppm), with Alternaria solani (2.5 ppm), with Alternaria solani (10 ppm), in the assay on Alternaria solani (40 ppm), with Botrytis cinerea (1.0 ppm) and in the assay on Botrytis cinerea (2.5 ppm) was 4 (80-100) in each case. Also, the “Spore Germination Rating” value with Botrytis cinerea (10 ppm) is listed as 2 (40-60); with Botrytis cinerea (40 ppm) it was 1 (10-40).

In the case of `Cc1cc(Cl)ccc1Oc1nsnc(Cl)c1=O` [Compound 55, 3-chloro-5-(4-chloro-2-methylphenoxy)-4H--1,2,6-thiadiazin-4-one], the “Spore Germination Rating” value is recorded as 4 (80-100) in the assay with Alternaria solani (1.0 ppm); 2 (40-60) in the assay on Alternaria solani (2.5 ppm); 1 (10-40) in the assay on Alternaria solani (10 ppm); 0 (0-10) in the assay on Alternaria solani (40 ppm); 4 (80-100) with Botrytis cinerea (1.0 ppm); 3 (60-80) in the assay on Botrytis cinerea (2.5 ppm). Also, the “Spore Germination Rating” value in the assay on Botrytis cinerea (10 ppm) and with Botrytis cinerea (40 ppm) was 1 (10-40) each time.
